Laboratory results as given in US8828997B2, “2,3-dihydro-1H-imidazo(1,2-a)pyrimidin-5-one derivatives, preparation thereof, and pharmaceutical use thereof” (Sanofi, priority 2009, dated 2014).

Key:
[1] = system: translocation of the LC3 protein in Hela GFP-LC3 cells; experiment: Translocation of the LC3 protein in Hela human cells measured by image analysis cytometry (test C, autophagy); format: cell-based; settings: Homo sapiens, HeLa, 2 h, EBSS + 10 μM hydroxychloroquine, cells with LC3 granulations, absolute IC50
Method in brief: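 HeLa clone stably expressing GFP-LC3, starved in EBSS with 10 μM hydroxychloroquine plus compound (10 nM to 1 μM range, 0.1% DMSO) for 2 h at 37 °C. After PFA fixation and Hoechst staining, LC3 translocation read by image analysis cytometry; IC50 from dose-response curves, mean of 2 independent experiments.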

[2] = system: AKT protein phosphorylated on serine 473 (P-AKT-S473) in PC3 human prostate carcinoma cells; experiment: pAKT expression in PC3 human prostate carcinoma cells measured by MSD Multi-spot Biomarker detection (test B); format: cell-based; settings: Homo sapiens, PC-3, P-AKT-S473, PC3 cells, MSD sandwich immunoassay, 1 to 2 h incubation, absolute IC50
Method in brief: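 PC3 cells exposed to compound for 1-2 h at 37 °C (0.1% DMSO; up to 10 μM), lysed, and P-AKT-S473 quantified by electrochemiluminescent sandwich immunoassay. Percent inhibition normalised to DMSO wells with background subtracted. Absolute IC50 from dose-response curves, averaged over 2 experiments.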

COc1ccc(CCN2c3nc(N4CCOCC4)cc(=O)n3C[C@@]2(C)C(F)(F)F)cc1 [Example 1, (S)-1-[2-(4-Methoxyphenyl)ethyl]-2-methyl-7-morpholin-4-yl-2-trifluoromethyl-2,3-dihydro-1H-imidazo[1,2-a]pyrimidin-5-one]
IC50 [1]: 44 nM
IC50 [2]: 3 nM
